The text below walks through data of PMC7127579 (Febs Letters, 2006).

For the test, the target named is T1, FhePrx (recombinant 2-Cys peroxiredoxin of Fasciola hepatica) (Fasciola hepatica, UniProt P91883).
T1 sequence (P91883 1-194): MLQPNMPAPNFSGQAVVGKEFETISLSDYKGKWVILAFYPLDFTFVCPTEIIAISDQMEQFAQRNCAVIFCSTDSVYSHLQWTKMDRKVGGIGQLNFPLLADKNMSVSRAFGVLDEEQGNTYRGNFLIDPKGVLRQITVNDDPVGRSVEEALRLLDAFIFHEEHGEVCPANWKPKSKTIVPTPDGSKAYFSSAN
As to the kind of experiment: coupled NADPH oxidation assay. It is filed as biochemical. To be noted: E. coli thioredoxin and thioredoxin reductase, 0.25 mM NADPH, 1 mM EDTA, 5 mM potassium phosphate pH 7.0, 22 °C.

In the case of `CC(C)(OO)c1ccccc1` [Cumene hydroperoxide], the Km was determined as 12.7 µM.

Consider `CC(C)(C)OO` [t-Butyl hydroperoxide], for which the Michaelis-Menten constant (Km) is 18.6 µM.

By Km is commonly meant the substrate concentration at which the rate is half of its maximum.
